We go through 7 compounds from patent US8898047B2, “Methods for identifying inhibitors against viruses that use a class I fusion protein” (Janssen Pharmaceuticals NV, priority 2008, dated 2014).

One experiment concerns HR1-derived peptide. The following applies: prior art (Cianci et al.); cited from earlier work.
The target of experiment [1] is IQN57 (HR1 hydrophobic pocket) (Human respiratory syncytial virus A, UniProt P03420). The following applies: 30 μM compound, 20° C., HR1 alone.
Protocol: 20 μM biotinylated-IQN57 was immobilized on a Streptavidin-certified sensor chip (GE Healthcare, Diegem, Belgium) surface in PBS at a flow rate of 10 μl/min and a contact time of 7 min. A reference flow cell was used as a control for nonspecific binding and refractive index changes. […] Several PBS+5% dimethylsulfoxide (DMSO; Sigma Aldrich NV, Bornem, Belgium) buffer blanks were injected over the course of an experiment for double referencing. The flow system was washed between sample injections with running buffer containing 50% DMSO, and the immobilized surface was regenerated with one injection of 0.2% sodiumdodecylsulfate for 30 sec. SPR biosensor data were collected on a BIAcore S51. All experiments were conducted at 20° C.
For experiment [2], the target named is biotin-labeled IQN57 / FITC-labeled C45 (HR1-CTC and HR2) (Human respiratory syncytial virus A, UniProt P03420). The following applies: 6HB-formation ELISA, FIG. 3E. In general terms: An ELISA detects its analyte on a solid surface through an enzyme-linked reagent.
Protocol: White streptavidin-coated 96-well plates (NoAb Biodiscoveries, Mississauga, Canada) were blocked with PBS+5% BSA for 1 h and then washed three times with PBS. 10 nM biotin-labeled IQN57 dissolved in PBS+1% BSA was non-covalently bound to the surfaces of the 96-well plate for 30 min and then wells were washed again 3 times with PBS. […] Subsequently, POD-conjugated anti-FITC Fab fragment (1:5000) (Roche Applied Science, Vilvoorde, Belgium) in PBS+1% BSA was administered to the wells and incubated for 30 min. Finally, wells were washed again three times with PBS, Supersignal West Femto chemiluminescent substrate from Pierce (Perbio Science, Erembodegem, Belgium) added and signals were analyzed on a ViewLux UltraHTS microplate reader (Perkin Elmer, Zaventem, Belgium). Assay conditions without addition of biotin-labeled IQN57, FITC-labeled C45, POD-conjugated anti-FITC Fab fragment, or chemiluminescent substrate were included as negative controls or control of background signal in each of the experiments. In addition, assay conditions with saquinavir, Fuzeon® (T20), or the HIV-1-derived HR1 peptide (biotin-labeled IQN36) were used as specificity controls in each experiment.
The next experiment concerns RSV. Nature of the experiment: RSV antiviral cellular assay. The format is cell-based, hRSV. The following applies: for EC50: human respiratory syncytial virus, pEC50 = -log10 EC50 (M), RSV antiviral cellular assay, read-out: In vitro activity (pEC50) (converted); for log reduction in activity on structural modification: reduction of antiviral activity versus parent compound of the Compound Z series.

Experiment [3] concerns the target T1, HR1 (IQN57) and HR2 (C45) heptad-repeat peptides (Human respiratory syncytial virus A, UniProt P03420).
T1 construct: IQ trimerisation segment (GCN4-pIQI-type coiled coil)
It counts as binding, hRSV. The following applies: competition assay, FIG. 3C.

Chain of biotin-labeled IQN57 / FITC-labeled C45 (HR1-CTC and HR2) (P03420 476-520): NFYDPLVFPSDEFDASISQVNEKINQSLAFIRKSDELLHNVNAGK
Chain of biotin-labeled IQN57 / FITC-labeled C45 (HR1-CTC and HR2) (P03420 153-209): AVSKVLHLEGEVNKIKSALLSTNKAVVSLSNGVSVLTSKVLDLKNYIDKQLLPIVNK
Chain of IQN57 (HR1 hydrophobic pocket) (P03420 153-209): as above
T1 sequence (P03420 153-209): as above
T1 sequence (P03420 476-520): as the sequence (P03420 476-520) above

For `O=c1n(Cc2nc3ccccc3n2CCCCO)c2cnccc2n1C1CC1` [BMS433771, reference compound], the “Binding to an HR1-derived peptide alone” value in the experiment on HR1-derived peptide was “relatively weak”. Further, in experiment [1], the “Binding to HR1 (IQN57) by SPR” value is “do not bind to the HR1 hydrophobic pocket alone”. Also, the “Effect on interaction of HR2 (C45) with HR1-CTC (IQN57)” value in experiment [2] is on record as “facilitate the interaction of HR2 with the HR1-CTC”.

Regarding `Cc1ccc(O)c(Cn2c(NCCCN3CCOCC3)nc3ccccc32)n1` [Compound 3], in the experiment on RSV (further truncation of the methylamino-toluene moiety, relative to compound 2), the “further log decrease in potency” value came out at 0.8 log. The EC50 in the experiment on RSV is 1.58e-07 M.

`Cc1ccc(CCCO)c(NCc2ccc3nc(N)n(Cc4nc(C)ccc4O)c3c2)c1` [Compound 4]: the EC50 in the experiment on RSV was 3.16e-11 M. Also, the “log improvement in activity” value in the experiment on RSV (removal of the morpholinopropyl group) is reported as 0.6 log.

For `Cc1ccc(CCCO)c(NCc2ccc3nc(NCCCN4CCOCC4)n(Cc4nc(C)ccc4O)c3c2)c1` [Compound 1, 2-[6-{[2-(3-hydroxy-propyl)-5-methyl-phenylamino]-methyl}-2-(3-morpholin-4-yl-propylamino)-benzoimidazol-1-ylmethyl]-6-methyl-pyridin-3-ol], in experiment [3], the “Competition with compound X for binding” value is listed as “competed for the same binding pocket”. Besides, the “Binding to HR1 (IQN57) by SPR” value in experiment [1] is on record as “do not bind to the HR1 hydrophobic pocket alone”. The “Effect on interaction of HR2 (C45) with HR1-CTC (IQN57)” value in experiment [2] is “facilitate the interaction of HR2 with the HR1-CTC”.

With `Cc1ccc(CCCO)c(NCc2ccc3ncn(Cc4nc(C)ccc4O)c3c2)c1` [Compound 5], in the experiment on RSV, the EC50 was 1.26e-08 M and the “log reduction in activity on structural modification” value (from here on “log reduction in activity”) is 2.6 log.

Take `COc1ccc(C)nc1Cn1c(NCCCN2CCOCC2)nc2ccc(CNc3cc(C)ccc3CCCO)cc21` [Compound 6]: in the experiment on RSV, the EC50 is 2.51e-09 M and the “log reduction in activity” value came out at 1.3 log.

For `Cc1cccc(NCc2ccc3nc(NCCCN4CCOCC4)n(Cc4nc(C)ccc4O)c3c2)c1` [Compound 2], in the experiment on RSV, the EC50 is 2.51e-09 M and the “log reduction in activity” value is on record as 1.3 log.
